The record followed here is patent publication US8883836B2, “Solid forms of bendamustine hydrochloride” (Cephalon, Inc., priority 2008, dated 2014).

This data set in a line: pKa Determination (Sirius GlpKa, UV). To be noted: by UV in aqueous conditions, 25° C. Type of data set: physicochemical. As for the experimental part: pKa Determination and Prediction
Data were collected on a Sirius GlpKa instrument with a D-PAS attachment. Measurements were made at 25° C. in aqueous solution by UV. The compound was initially dissolved in DMSO at 5 mg/ml of which 50 μl (0.25 mg) was used for the titration from pH 1.3 to 9.0. The titration media was ionic-strength adjusted (ISA) with 0.15 M KCl (aq). The data were refined using Refinement Pro software v1.0. Prediction of pKa values was made using ACD pKa prediction software v9.

Regarding `Cl.Cn1c(CCCC(=O)O)nc2cc(N(CCCl)CCCl)ccc21` [Form 1, bendamustine hydrochloride], the “pKa (Acid)” value came out at 4.17.
